From PubChem BioAssay (NCI)
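Step 1: Grow cells in 96-well plates. Step 2: Expose to compound for 48 hours at 5 concentrations. Step 3: Interpolate endpoints linearly; if unreached, use highest concentration. GI50: concentration for 50% inhibition of growth. TGI: total growth inhibition.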

Legend:
Test in all cases: inhibition of tumour cell growth, NCI panel, 48 h
HCC-2998 colon = tested on: HCC-2998 colon
PC-3 prostate = tested on: PC-3 prostate
MDA-MB-231 breast = tested on: MDA-MB-231 breast
786-0 renal = tested on: 786-0 renal
CCRF-CEM leukemia = tested on: CCRF-CEM leukemia
HS 578T breast = tested on: HS 578T breast
SK-OV-3 ovarian = tested on: SK-OV-3 ovarian
SNB-75 CNS = tested on: SNB-75 CNS
HOP-92 NSCLC = tested on: HOP-92 NSCLC
CAKI-1 renal = tested on: CAKI-1 renal

Compound	GI50 (HCC-2998 colon) [µM]	TGI (HCC-2998 colon) [µM]	GI50 (PC-3 prostate) [µM]	TGI (PC-3 prostate) [µM]	GI50 (MDA-MB-231 breast) [µM]	TGI (MDA-MB-231 breast) [µM]	GI50 (786-0 renal) [µM]	TGI (786-0 renal) [µM]	GI50 (CCRF-CEM leukemia) [µM]	TGI (CCRF-CEM leukemia) [µM]	GI50 (HS 578T breast) [µM]	TGI (HS 578T breast) [µM]	GI50 (SK-OV-3 ovarian) [µM]	TGI (SK-OV-3 ovarian) [µM]	GI50 (SNB-75 CNS) [µM]	TGI (SNB-75 CNS) [µM]	GI50 (HOP-92 NSCLC) [µM]	TGI (HOP-92 NSCLC) [µM]	GI50 (CAKI-1 renal) [µM]	TGI (CAKI-1 renal) [µM]
Nc1nc(N)c2nc3c(nc2n1)CCCCCCCCCC3	3.83	> 100	5.73	> 100	6.04	> 100	0.675	> 100	6.24	> 100	3.63	> 100	12	> 100	5.35	51.2	3.23	> 100	3.36	> 100
Cc1cc(O)c(C2=NN(c3ccc(S(N)(=O)=O)cc3)C(/C=C/c3ccccc3)C2)cc1Cl (stereo not drawn)	9.89	30.3	3.15	11.5	4.56	16.3	4.09	12.5	17.7	50	12.3	49.7	5.52	17.9	3.39	16.1	2.36	8.48	15.3	87.7
C[C@@H](CO)NC(=O)c1cc(-c2ccc(Cl)cc2)nn(-c2cnn(C)c2)c1=O	23.1	> 100	27.8	> 100	51.5	> 100	23.9	> 100	22.1	> 100	24.8	> 100	82.6	> 100	16.7	78.1	16.6	> 100	10.4	> 100
O=C1CC/C(=C/COc2cc(=O)oc3ccccc23)O1	15.5	29.5	5.23	23.9	11.5	24.4	2.54	15.9	3.1	21.5	10.5	57.4	22.9	> 100	1.58	11.8	10.5	26.9	11.9	28.3
CCOc1ccc2c(c1)c(CC(=O)O)cn2C	–	> 100	–	> 100	–	> 100	–	> 100	–	> 100	–	> 100	–	> 100	–	–	–	> 100	–	> 100
CN(CCCCCl)P(=O)(OCc1ccc([N+](=O)[O-])o1)OCC1OC(n2cnc([N+](=O)[O-])c2N)C(O)C1O (stereo not drawn)	> 100	> 100	> 100	> 100	> 100	> 100	> 100	> 100	> 100	> 100	> 100	> 100	> 100	> 100	> 100	> 100	> 100	> 100	> 100	> 100
O=C(CCCN1CCC(C(O)c2ccc(F)cc2)CC1)c1ccc(F)cc1 (stereo not drawn)	–	93.4	–	99.6	–	89.7	–	96.6	–	228	–	116	–	138	–	98.5	–	60.4	–	114
CC(=O)Nc1n[n+]([O-])c2cc(C)ccc2[n+]1[O-]	–	71	–	14.8	–	23.4	–	17.5	–	> 47.4	–	40.7	–	20.3	–	12	–	7.29	–	12
CC(=O)O[C@H]1CC[C@@]2(C)C(=C/C(=N/OCCN3CCCC3)[C@H]3[C@@H]4CC[C@H](OC(C)=O)[C@@]4(C)CC[C@@H]32)C1	45	> 100	40.5	> 100	38.7	> 100	30.8	> 100	42.9	> 100	34.9	> 100	40.8	> 100	68	> 100	16.7	96.5	> 100	> 100
Cn1cc(C2=C(Nc3ccccc3)C(=O)NC2=O)c2ccccc21	> 25	> 25	> 25	> 25	> 25	> 25	> 25	> 25	> 25	> 25	> 25	> 25	> 25	> 25	> 25	> 25	> 25	> 25	> 25	> 25
CN(C)c1ccc(/C=N/S(=O)(=O)c2ccc(-n3c(-c4ccccc4)nc4c(Br)cc(Br)cc4c3=O)cc2)cc1	51.2	> 100	35.3	> 88	44	> 100	55.7	> 100	3.22	> 100	32.6	> 92.1	47.2	> 100	24.7	71.3	22.7	71.6	47.5	> 100
COc1cc2c(c(OC)c1OC)-c1ccc(N=NC(N)=S)c(=O)cc1[C@@H](NC(C)=O)CC2	0.311	1.76	0.617	> 100	0.592	> 27.7	1.69	–	0.535	> 100	0.294	–	0.43	–	0.256	–	1.97	98.8	> 24.4	> 100
Cc1[nH]c2cc(F)ccc2c1-c1nc2c3cccnc3c3ncccc3c2[nH]1	0.117	1.3	0.183	2.93	0.409	2.4	0.243	0.973	0.0672	0.644	1.09	4.74	–	–	0.473	1.84	0.204	1.41	0.289	1.19
CCCCNc1ccc(Nc2ccccc2)cc1	5.73	> 100	3.15	38.2	16.9	95	10.4	74.6	2.93	> 100	5.11	73.7	12.6	70.3	8.46	61.9	3.42	32.5	18.6	88.5
